Results from patent publication US20110070320A1, “BIODEGRADABLE THERMORESPONSIVE 3-ARM POLYETHYLENE GLYCOL POLY(LACTIDE-CO-GLYCOLIDE) COPOLYMER FOR GINSENG ADMINISTRATION” (priority 2009, published 2011).

Assays:
Format in all cases: physicochemical
[1] = Doxorubicin release from copolymer aqueous gel; conditions: 37° C.; 20% (w/w) copolymer gel; FIG. 3
Description: Doxorubicin was used as a hydrophilic drug in a drug release study using the copolymer of EXAMPLE 1 in a 20% (w/w) aqueous solution. The drug (4 mg) was dissolved in 2 ml of the polymer solution. The drug/polymer solution was filtered through a 0.2 μm syringe and an aliquot of 0.5 ml of the solution was added to each sample vial. The triplet samples were placed in a water bath preheated and stabilized at 37° C. After 10 min a buffer solution of 1×PBS (1 ml, preheated at 37° C.) was added to each sample vial containing a gelled drug/polymer solution. The drug contents in the release media, which were removed and replaced with fresh PBS solutions at each sampling point, were determined at 1, 3, 6 h and then daily for 8 days by a spectrophotometer (SpecraMax M2 by Molecular Devices).

[2] = Paclitaxel release from copolymer aqueous gel; conditions: 37° C.; 20% (w/w) copolymer gel; FIG. 2
Description: Paclitaxel was used as a hydrophobic drug in a drug release study using the copolymer of EXAMPLE 1 in a 20% (w/w) aqueous solution. The drug (4 mg) was added to a 4 ml vial containing 0.2 ml of the polymer solution. At 4° C. the sample vial was sonicated for 15 min and vortexed for 16 h and sonicated for 15 min again to give a slightly cloudy suspension. After filtered through a 0.2 μm syringe filter an aliquot (0.2 ml) of the solution was added to each sample vial. The triplet samples were placed in a water bath preheated and stabilized at 37° C. After 10 min a buffer solution of 1×PBS (3 ml, preheated at 37° C.) containing 2.4% (w/w) of Tween 80 and 4% (w/w) of Cremophor EL was added to each sample vial containing a gelled drug/polymer solution. The drug release was determined by taking an aliquot of the medium from each sample vial at 1.5 h, 6 h and then daily for 10 days and analyzing the drug content of the sample by HPLC (mobile phase 1 ml/min 50/50 acetonitrile/deioned water, wavelength 227 nm, running time 15 min).

[3] = Enhanced drug solubility in polymer gel (HPLC); conditions: aqueous solution of Example 1 polymer (20% w/w); filtered 0.2 μm
Description: In a 4 ml vial the polymer from EXAMPLE 1 (200 mg) and paclitaxel (2 mg) were dissolved in acetone (1·ml). The mixture was evaporated under vacuum for 16 h. Deionized water (0.8 ml) was added and the mixture was stirred at 4° C. for 24 h. The resulting solution was filtered through a 0.2 μm syringe filter to give a clear solution. An aliquot of the solution was diluted 100-fold with acetonitrile and analyzed for paclitaxel by HPLC (mobile phase: water/acetonitrile 1:1, 1 ml/min, injection volume: 20 μl, running time: 15 min, column: Waters Symmetry 300™ 4.6×250 mm, C18 5 μm, detector: Waters 2996).

Structure (SMILES)	duration of controlled drug release from copolymer aqueous gel [1] [days]	duration of controlled drug release from copolymer aqueous gel [2] [days]	paclitaxel content in the aqueous solution [3] [mg/mL]
COc1cccc2c1C(=O)c1c(O)c3c(c(O)c1C2=O)C[C@@](O)(C(=O)CO)C[C@@H]3O[C@H]1C[C@H](N)[C@H](O)[C@H](C)O1 [doxorubicin, Doxorubicin]	8	–	–
CC(=O)O[C@H]1C(=O)[C@@]2(C)[C@H]([C@H](OC(=O)c3ccccc3)[C@]3(O)C[C@H](OC(=O)[C@H](O)[C@@H](NC(=O)c4ccccc4)c4ccccc4)C(C)=C1C3(C)C)[C@]1(OC(C)=O)CO[C@@H]1C[C@@H]2O [paclitaxel, Paclitaxel]	–	10	6.4
